Measurements taken from US5916876A, “Peptide inhibitors of leukocyte adhesion” (Centocor, Inc., priority 1994, dated 1999).
Residues, ends and D or L forms follow the SMILES beside them.

Molecular target: T1, human P-selectin (Homo sapiens, UniProt P16109)
T1 construct: from tissue; host or cells: outdated human platelet packs from a blood bank
T1 sequence (P16109 42-830): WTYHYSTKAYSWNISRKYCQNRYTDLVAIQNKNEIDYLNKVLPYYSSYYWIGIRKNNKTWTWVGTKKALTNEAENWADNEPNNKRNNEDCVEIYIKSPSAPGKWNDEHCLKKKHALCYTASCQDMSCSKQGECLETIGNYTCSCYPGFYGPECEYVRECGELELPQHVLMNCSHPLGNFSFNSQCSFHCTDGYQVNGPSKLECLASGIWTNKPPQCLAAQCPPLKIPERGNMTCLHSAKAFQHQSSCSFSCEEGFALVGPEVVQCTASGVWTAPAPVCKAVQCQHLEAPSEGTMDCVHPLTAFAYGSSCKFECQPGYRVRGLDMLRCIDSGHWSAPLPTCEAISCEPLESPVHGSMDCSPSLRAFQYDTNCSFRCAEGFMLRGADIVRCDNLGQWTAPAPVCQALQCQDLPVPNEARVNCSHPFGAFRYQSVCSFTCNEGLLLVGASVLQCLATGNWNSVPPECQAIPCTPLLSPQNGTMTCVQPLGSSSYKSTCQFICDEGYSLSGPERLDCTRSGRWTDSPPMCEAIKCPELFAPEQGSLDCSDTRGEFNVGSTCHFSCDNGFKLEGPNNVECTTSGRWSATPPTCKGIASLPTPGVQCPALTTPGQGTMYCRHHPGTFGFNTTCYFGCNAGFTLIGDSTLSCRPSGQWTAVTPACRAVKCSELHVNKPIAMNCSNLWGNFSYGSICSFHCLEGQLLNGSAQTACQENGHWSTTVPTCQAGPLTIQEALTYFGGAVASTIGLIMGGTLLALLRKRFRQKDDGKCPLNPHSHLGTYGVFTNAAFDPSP
Experiment: Neutrophil adhesion to purified P-selectin immobilized on plastic wells (myeloperoxidase readout)
Assay type: cell-based
Conditions: inhibition of binding of human neutrophils to human P-selectin; head: 0.3 μM peptide, text b193: 300 μM; read-out: % INHIBITION AT 0.3 μM PEPTIDE CONC.
Description: Peptides can be screened for their ability to inhibit adhesion to cells, for example, neutrophil adhesion to purified P-selectin immobilized on plastic wells, using the assay described by Geng, et al., Nature 343, 757-760 (1990).
Human neutrophils are isolated from heparinized whole blood by density gradient centrifugation on Mono-Poly resolving media, Flow Laboratories. Neutrophil suspensions are greater than 98% pure and greater than 95% viable by trypan blue exclusion. For adhesion assays, neutrophils are suspended at a concentration of 2×10^6 cells/mL in Hanks' balanced salt solution containing 1.26 mM Ca^2+ and 0.81 mM Mg^2+ (HBSS, Gibco) with […] human serum albumin (HBSS/HSA). Adhesion assays are conducted in triplicate in 96-well microtiter plates, Corning, incubated at 4° C. overnight with 50 microliters of various protein solutions.
P-selectin is isolated from human platelet lysates by immunoaffinity chromatography on antibody S12-Sepharose™ and ion-exchange chromatography on a Mono-Q™ column (FLPC, Pharmacia Fine Chemicals), as follows.
Outdated human platelet packs (100 units) obtained from a blood bank and stored at 4° C. are pooled, adjusted to 5 mM EDTA at pH 7.5, centrifuged at 4,000 rpm for 30 minutes in 1 liter bottles, then washed three times with 1 liter of 0.1 M NaCl, 20 mM Tris pH 7.5 (TBS), 5 mM EDTA, 5 mM benzamidine.
The pellets are then resuspended in a minimum amount of wash buffer and made 1 mM in DIFP, then frozen in 50 mL screwtop tubes at -80° C. The frozen platelets are thawed and resuspended in 50 mL TBS, 5 mM benzamidine, 5 mM EDTA pH 7.5, 100 µM leupeptin. The suspension is frozen and thawed two times in a dry ice-acetone bath using a 600 mL lyophilizing flask, then homogenized in a glass/teflon mortar and pestle and made 1 mM in DIFP. The NaCl concentration is adjusted to 0.5 M with a stock solution of 4 M NaCl. After stirring the suspension at 4° C., it is centrifuged in polycarbonate tubes at 33,000 rpm for 60 minutes at 4° C. The supernatant (0.5 M NaCl wash) is removed and saved; this supernatant contains the soluble form of P-selectin. Care is taken not to remove the top part of the pellet with the supernatant. The pellets are then homogenized in extraction buffer (TBS, 5 mM benzamidine, 5 mM EDTA, pH 7.5, 100 μM leupeptin, 2% Triton X-100). After centrifugation at 19,500 rpm for 25 minutes at 4° C., the supernatant is removed. The extraction procedure is repeated with the pellet and the supernatant is combined with the first supernatant. The combined extracts, which contain the membrane form of P-selectin, are adjusted to 0.5 M NaCl.
The soluble fraction (0.5 M NaCl wash) and the membrane extract (also adjusted to 0.5 M NaCl) are absorbed with separate pools of the monoclonal antibody S12 (directed to P-selectin) previously coupled to Affigel (Biorad) at 5 mg/mL for 2 hours at 4° C. After letting the resins settle, the supernatants are removed. The S12 Affigel containing bound GMP-140 is then loaded into a column and washed overnight at 4° C. with 400 mL of 0.5 M NaCl, 20 mM Tris pH 7.5, 0.01% Lubrol PX.
Bound P-selectin is eluted from the S12 Affigel with 100 mL of 80% ethylene glycol, 1 mM MES pH 6.0, 0.01% Lubrol PX. Peak fractions with absorbance at 280 nm are pooled. Eluates are dialyzed against TBS with 0.05% Lubrol, then applied to a Mono Q column (FPLC from Pharmacia). The concentrated protein is step eluted with 2 M NaCl, 20 mM Tris pH 7.5 (plus 0.05% Lubrol PX for the membrane fraction). Peak fractions are dialyzed into TBS pH 7.5 (plus 0.05% Lubrol PX for the membrane fraction).
P-selectin is plated at 5 micrograms/mL and the control proteins: human serum albumin (Alb), platelet glycoprotein IIb/IIIa (IIb), von Willebrand factor (vWF), fibrinogen (FIB), thrombomodulin (TM), gelatin (GEL) or human serum (HS), are added at 50 micrograms/mL. […]

Compound	inhibition at 300 µM
CC(C)C[C@H](NC(=O)[C@@H](NC(=O)[C@H](CCCCN)NC(=O)[C@H](CC(N)=O)NC(=O)[C@@H](N)CC(C)C)C(C)C)C(=O)N1CCC[C@H]1C(=O)N[C@@H](Cc1ccc(O)cc1)C(=O)N[C@@H](Cc1ccc(O)cc1)C(=O)N[C@@H](CO)C(=O)N[C@@H](CO)C(=O)N[C@@H](Cc1ccc(O)cc1)C(=O)N[C@@H](Cc1ccc(O)cc1)C(=O)N[C@H](C(N)=O)C(C)C [SEQ ID NO: 3, Leu--Asn--Lys--Val--Leu--Pro--Tyr--Tyr--Ser--Ser--Tyr--Tyr--Val-NH2] (H-LNKVLPYYSSYYV-NH2)	100%
CC(C)C[C@H](NC(=O)[C@@H](NC(=O)[C@@H](N)CCCCN)C(C)C)C(=O)N1CCC[C@H]1C(=O)N[C@@H](Cc1ccc(O)cc1)C(=O)N[C@@H](Cc1ccc(O)cc1)C(=O)N[C@@H](CO)C(=O)N[C@@H](CO)C(=O)N[C@@H](Cc1ccc(O)cc1)C(=O)N[C@@H](Cc1ccc(O)cc1)C(=O)N[C@H](C(N)=O)C(C)C [SEQ ID NO: 5, Lys--Val--Leu--Pro--Tyr--Tyr--Ser--Ser--Tyr--Tyr--Val-NH2] (H-KVLPYYSSYYV-NH2)	102%
CC(C)C[C@H](NC(=O)[C@H](Cc1ccc(O)cc1)NC(=O)[C@@H](N)CC(=O)O)C(=O)N[C@@H](CC(N)=O)C(=O)N[C@@H](CCCCN)C(=O)N[C@H](C(=O)N[C@@H](CC(C)C)C(=O)N1CCC[C@H]1C(=O)N[C@@H](Cc1ccc(O)cc1)C(=O)N[C@@H](Cc1ccc(O)cc1)C(=O)N[C@@H](CO)C(=O)N[C@@H](CO)C(=O)N[C@@H](Cc1ccc(O)cc1)C(=O)N[C@@H](Cc1ccc(O)cc1)C(N)=O)C(C)C [SEQ ID NO: 6, Asp--Tyr--Leu--Asn--Lys--Val--Leu--Pro--Tyr--Tyr--Ser--Ser--Tyr--Tyr-NH2] (H-DYLNKVLPYYSSYY-NH2)	61%
CC(C)C[C@H](NC(=O)[C@@H](N)C(C)C)C(=O)N1CCC[C@H]1C(=O)N[C@@H](Cc1ccc(O)cc1)C(=O)N[C@@H](Cc1ccc(O)cc1)C(=O)N[C@@H](CO)C(=O)N[C@@H](CO)C(=O)N[C@@H](Cc1ccc(O)cc1)C(=O)N[C@@H](Cc1ccc(O)cc1)C(=O)N[C@H](C(N)=O)C(C)C [SEQ ID NO: 10, Val--Leu--Pro--Tyr--Tyr--Ser--Ser--Tyr--Tyr--Val-NH2] (H-VLPYYSSYYV-NH2)	66%
CC(C)C[C@H](NC(=O)[C@@H](NC(=O)[C@@H](N)CCCCN)C(C)C)C(=O)N1CCC[C@H]1C(=O)N[C@@H](Cc1ccc(O)cc1)C(=O)N[C@@H](Cc1ccc(O)cc1)C(=O)N[C@@H](CO)C(=O)N[C@@H](C)C(=O)N[C@@H](Cc1ccc(O)cc1)C(=O)N[C@@H](Cc1ccc(O)cc1)C(N)=O [SEQ ID NO: 14, Lys--Val--Leu--Pro--Tyr--Tyr--Ser--Ala--Tyr--Tyr-NH2] (H-KVLPYYSAYY-NH2)	18%
CC(C)C[C@H](NC(=O)[C@@H](NC(=O)[C@@H](N)CCCCN)C(C)C)C(=O)N1CCC[C@H]1C(=O)N[C@@H](Cc1ccc(O)cc1)C(=O)NCC(=O)N[C@@H](CO)C(=O)N[C@@H](CO)C(=O)N[C@@H](Cc1ccc(O)cc1)C(=O)N[C@@H](Cc1ccc(O)cc1)C(N)=O [SEQ ID NO: 19, Lys--Val--Leu--Pro--Tyr--Gly--Ser--Ser--Tyr--Tyr-NH2] (H-KVLPYGSSYY-NH2)	34%
CC(C)[C@H](NC(=O)[C@@H](N)CCCCN)C(=O)N[C@@H](CCC(N)=O)C(=O)N1CCC[C@H]1C(=O)N[C@@H](Cc1ccc(O)cc1)C(=O)N[C@@H](Cc1ccc(O)cc1)C(=O)N[C@@H](CO)C(=O)N[C@@H](CO)C(=O)N[C@@H](Cc1ccc(O)cc1)C(=O)N[C@@H](Cc1ccc(O)cc1)C(N)=O [SEQ ID NO: 22, Lys--Val--Gln--Pro--Tyr--Tyr--Ser--Ser--Tyr--Tyr-NH2] (H-KVQPYYSSYY-NH2)	29%
CC[C@H](C)[C@H](NC(=O)[C@H](CO)NC(=O)[C@H](CC(N)=O)NC(=O)[C@H](CC(C)C)NC(=O)[C@H](Cc1ccc(O)cc1)NC(=O)[C@@H](N)CCC(=O)O)C(=O)N[C@@H](CC(C)C)C(=O)N[C@@H](CO)C(=O)N[C@@H](Cc1ccc(O)cc1)C(=O)N[C@@H](CO)C(=O)N1CCC[C@H]1C(=O)N[C@@H](CO)C(=O)N[C@@H](Cc1ccc(O)cc1)C(=O)N[C@@H](Cc1ccc(O)cc1)C(=O)N[C@@H](Cc1c[nH]c2ccccc12)C(N)=O [SEQ ID NO: 23, Glu--Tyr--Leu--Asn--Ser--Ile--Leu--Ser--Tyr--Ser--Pro--Ser--Tyr--Tyr--Trp-NH2] (H-EYLNSILSYSPSYYW-NH2)	54%
